The source of these data is patent publication US11845927B2, “Bioremediation using co-metabolism substrates” (Oregon State University, priority 2018, dated 2023).

Converted amounts (≈) assume the structure as drawn. Read-outs that look alike come from different tables or passages of the source.

Data set [1] can be described thus: Abiotic hydrolysis of suspended and encapsulated TBOS and T2BOS. In kind it is physicochemical. The conditions noted are these: for factor of decrease of hydrolysis rate in encapsulated beads compared to solution: similar masses present. On the procedure:
This example concerns abiotic hydrolysis experiments. Batch reactors similar to the CoC transformation reactors were used to determine the rate of hydrolysis of TBOS and T2BOS free suspended in solution and encapsulated at different mass loadings in both alginate and gellan gum. These batch kinetic tests were conducted at a constant 20° C. in 155 mL glass Wheaton bottles sealed with reusable screw on caps fitted with gray butyl rubber septa. Reactors were filled with 100 mL of pH-7 carbonate buffered MSM followed by an addition of free suspended or encapsulated SRCs. The total mass of SRC added to each reactor was dependent on various parameters but ranged from 1000-1500 mg/L. All hydrolysis rates observed here were abiotic hydrolysis rates, which was ensured by the addition of 0.2% (w/v) sodium azide as a microbial poison and typically measurements of respiration data (O2/CO2).
Reactors with TBOS and T2BOS in free suspension at concentrations that replicate encapsulated SRC reactors were created to determine the effect of encapsulation on SRC hydrolysis. Substrate production rates were used as a proxy for SRC hydrolysis, due to the simplicity of substrate analysis. Direct measurements of 1- and 2-butanol in solution were made in order to determine substrate production rates and measurements are presented on a total mass produced basis. Hydrolysis of orthosilicate compounds is acid and base catalyzed and therefore, observed hydrolysis rates are on the low end of what is possible, due to suspension in pH-7 media.
The concentrations of TBOS and T2BOS in solution effects the rate of hydrolysis, and therefore, concentrations of SRCs in abiotic reactors were created to mimic the concentration of SRCs in biotic co-encapsulated reactors, ˜1000-1500 mg/L. Biotic and abiotic reactors were created in unison and monitored alongside one another, though abiotic data have been separated and are presented below. To prevent contamination from occurring over the long duration of these experiments sodium azide, 0.2% (w/v), was added to all abiotic reactors.
Due to the ease of encapsulation of SRCs within alginate, initial abiotic hydrolysis work was conducted using alginate encapsulated TBOS. TBOS was encapsulated in abiotic alginate macro-beads at a mass loading of ˜5% and 30% (w/w). These beads were then added to triplicate reactors, such that the final TBOS concentration in pH-7 carbonate buffered media was kept constant at ˜1000 mg/L; i.e., 2 grams of 5% beads and ⅓ grams of 30% beads were added to 100 mL media solution. […] To illustrate the effect of encapsulation on the hydrolysis rate of TBOS, reactors containing similar concentrations of suspended TBOS were created and monitored alongside encapsulated TBOS reactors.
Total TBOS solution concentrations of ˜1000 mg/Land bead mass loading ˜5 and 30% (w/A). Datapoints are averages between duplicate (suspended) or triplicate (encapsulated) reactors in each treatment and errors bars are 95% confidence intervals. Suspended TBOS reactors were created after encapsulated reactors and therefore, have a shorter total duration of measurements.
The abiotic hydrolysis rate of both TBOS and T2BOS encapsulated in gellan gum was also investigated. Both SRCs were encapsulated in cylindrical gellan macro-beads at mass loadings of ˜8% (w/w). For this work ATCC 21198 was also co-encapsulated within the gellan gum matrix at initial concentrations of ˜0.5 mgTss/g, and an addition of 0.2% (w/v) sodium azide was added as a cellular poison to ensure cells were not alive within the matrix. Biomass was encapsulated because it had been determined that encapsulated SRCs may hydrolyze more quickly with cells present within the encapsulation matrix. Although, the increase in hydrolysis rate was not proven to be from biotic hydrolysis of SRCs and may have been due to the presence of biomass within the matrix allowing more diffusion of water into and butanol out of beads. […]

The nature of data set [2]: Alcohol release from orthosilicates in poisoned control batch reactors. In kind it is physicochemical. From the text: A slow but gradual rate of O2 consumption was observed, when headspace O2 concentrations are compared to the poisoned controls (FIG. 13). […] T2BOS is not rapidly utilized by 21198 like observed with sBA (FIG. 15), and 2-butanol is released by abiotic hydrolysis. The slow rate of hydrolysis is indicated by the measured 2-butanol concentrations in the poisoned reactor. Over the period of 60 to 125 days approximately 50 μmol of 2-butanol was formed.
Tetraisopropoxysilane (T2POS) is a 2-propanol releasing orthosilicate, similar to TBOS and T2BOS. […] The smaller 2-propanol therefore would be released from T2POS more rapidly than 2-butanol from T2BOS [6], but slower than TBOS. An identical test was performed to those presented for TBOS and T2BOS. The same growth indicators, CO2, O2, and 2-propanol, were tracked throughout the experiment (FIG. 18).

The test system of data set [3] is Rhodococcus rhodochrous 21198. Briefly: Growth cometabolism batch tests of 21198 on 2-butanol or orthosilicate SRCs. In kind it is cell-based. The conditions noted are these: for first order rate of 1,4-D transformation / first-order rate of 1,1,1-TCA transformation: 21198 grown in the presence of the orthosilicate; for period over which cometabolic transformation of 1,1,1-TCA and 1,4-D was maintained: single addition of the SRC. On the procedure:
Growth on 2-butanol was tracked by the production of CO2, the increase in optical density and the consumption of 2-butanol (FIG. 11).
Three additions of 1,1,1-TCA and 1,4-D were made to the two biologically active reactors at 0, 21, and 60 days. […] A third addition of 1,1,1-TCA and 1,4-D was made to the active bottles around day 60.
The same growth cometabolism test performed with T2BOS as an SRC was performed for TBOS (FIGS. 16 and 17).
Tetraisopropoxysilane (T2POS) is a 2-propanol releasing orthosilicate, similar to TBOS and T2BOS. […] An identical test was performed to those presented for TBOS and T2BOS. The same growth indicators, CO2, O2, and 2-propanol, were tracked throughout the experiment (FIG. 18).

For data set [4] the following is noted: cited from earlier work; for Henry's Constant, Hcc: dimensionless.
For data set [5], the system named is Rhodococcus rhodochrous 21198. Briefly: Resting cell co-metabolic transformation tests with 21198. It counts as cell-based. The conditions noted are these: 21198 grown on isobutane, previous batch experiments.
Data set [6] has as its system short chain alkane monoxygenase (SCAM). Briefly: Activity-based labeling (ABL) of SCAM after growth on substrates. In kind it is cell-based, Rhodococcus rhodochrous 21198. The conditions noted are these: 21198 grown on the substrate.
Excerpt: ABL testing was used to identify alcohol growth substrates that induce SCAM expression and activity and result in co-metabolic transformation of contaminants, such as 1,4-D and CAHs.
Data set [7] deals with Burkholderia vietnamiensis G4. Briefly: Resting cell TCE transformation tests with G4. In kind it is cell-based. The conditions noted are these: G4 grown on the substrate. From the text: This example concerns COC cometabolism by Burkholderia vietnamiensis G4 (G4).
Data set [8] in a line: Growth substrates: final OD and % removal of cis-DCE and TCE (Table 1). In kind it is cell-based. The conditions noted are these: culture grown on the listed substrate.
For data set [9] the following is noted: cited from earlier work.
The mark [10] stands for this setting: Table 15, summary of abiotic hydrolysis rates.
Setting [11] is: abiotic hydrolysis, aqueous alcohol.

`CCCCO[Si](OCCCC)(OCCCC)OCCCC` [TBOS, tetrabutyl orthosilicate]: the “Estimated Exhaustion of TBOS” value in data set [1] (Table 12) was 0.6 years. In data set [1] (Table 12, 1-butanol, TBOS ~1000 mg/L, pH-7, 20° C.), the “Butanol Production Rate” value came to 5.9 µmol/day. For the same compound, the “Estimated Exhaustion of SRS” value in [1] (Table 15) is reported as 0.58 years. Further, the “Butanol Production Rate” value in [1] (setting [10]) stood at 5.91 µmol/day. In addition, the “factor of decrease of hydrolysis rate in encapsulated beads compared to solution” value in data set [1] is listed as 10. For the same compound, the “alcohol production rate in poisoned control” value in [2] (setting [11]) came to 11 µmol/day. In addition, in data set [3], the “first order rate of 1,4-D transformation” value turned out to be 0.76 day⁻¹; the “first-order rate of 1,1,1-TCA transformation” value (from here on “first-order rate”) turned out to be 0.47 day⁻¹; the “period over which cometabolic transformation of 1,1,1-TCA and 1,4-D was maintained” value stood at 45 days.
As for `CC(C)C` [Isobutane], in data set [4], the “Solubility, Sw” value is recorded as 48.9 mg/L (≈ 841 µM) and the “Henry's Constant, Hcc” value is reported as 49.2. The VC transformation rate entry in [5] is given as “about 14 μmol/mg TSS/day”. Besides, the “SCAM activity / protein banding pattern” value in data set [6] is reported as “strongest banding pattern”.
On to `OCc1ccccc1` [Benzyl alcohol], for which the “TCE transformation by resting cells” value in data set [7] is recorded as “rapidly cometabolized”. In data set [8], the “% REMOVAL TCE” value came to 100%.
As to `CC(Cl)(Cl)Cl` [1,1,1-Trichloroethane], in data set [4], the “Solubility, Sw” value is listed as 1,290 mg/L and the “Henry's Constant, Hcc” value is given as 0.548.
Regarding `C=CC(C)O` (centres unmarked) [3-buten-2-ol], the “FINAL OD(550)” value in data set [8] was found to be 0.03.
In the case of `CC(=O)O` [Acetate], the “TCE transformation by resting cells” value in data set [7] is reported as “Slow rates”. For the same compound, in data set [8], the “% REMOVAL Cis-DCE” value was 73% and the “FINAL OD(550)” value is reported as 0.33.
Regarding `CC(C)O[Si](OC(C)C)(OC(C)C)OC(C)C` [T2POS, tetraisopropoxysilane], in data set [2] (setting [11]), the “alcohol production rate in poisoned control” value amounted to 5.1 µmol/day. In data set [3], the “first order rate of 1,4-D transformation” value is 0.24 day⁻¹ and the “first-order rate” value is 0.14 day⁻¹.
Turning to `C1COCCO1` [1,4-Dioxane], in data set [4], the “Henry's Constant, Hcc” value is listed as 0.000198.
As to `CCC(C)O[Si](OC(C)CC)(OC(C)CC)OC(C)CC` (centres unmarked) [T2BOS, tetra-sec-butyl orthosilicate], the estimated solubility in data set [9] is 6.8 µg/mL; in data set [9] (listed as tetra-sec-butyl orthosilicate), 3.8 µg/mL. The “Estimated Exhaustion of T2BOS” value in [1] (Table 13) is given as 12.9 years. Also, the “Butanol Production Rate” value in data set [1] (Table 13, SRC ~1500 mg/L, pH-7) is 0.40 µmol/day; in data set [1] (Table 14, SRC 1500 mg/l), 0.40 µmol/day; in data set [1] (setting [10]), 0.40 µmol/day. The “Estimated Exhaustion of TBOS” value in data set [1] (Table 14) is listed as 12.9 years. In addition, in data set [1] (Table 15), the “Estimated Exhaustion of SRS” value is given as 12.9 years. For the same compound, the “factor of decrease of hydrolysis rate in encapsulated beads compared to solution” value in [1] came to 10. Besides, the “2-butanol production rate in poisoned control” value in [2] (setting [11]) was determined as 0.76 µmol/day. For the same compound, the “2-butanol formed in poisoned reactor” value in data set [2] (over the period of 60 to 125 days, T2BOS 1500 mg/L) is given as “approximately 50 μmol”. For the same compound, in data set [3], the “first order rate of 1,4-D transformation” value came out at 0.04 day⁻¹. Further, in data set [3], the “first-order rate” value stood at 0.037 day⁻¹. The “period over which cometabolic transformation of 1,1,1-TCA and 1,4-D was maintained” value in [3] is recorded as 125 days.
In the case of 1-Propanol, in data set [8], the “% REMOVAL Cis-DCE” value is 44% and the “FINAL OD(550)” value was 0.24. Moreover, the “SCAM activity / protein banding pattern” value in data set [6] was “not induced”.
In the case of `C#C` [acetylene, reference compound], the “effect on transformation of 1,1,1-TCA and 1,4-D” value in [3] (acetylene present during growth of 21198 on 2-butanol) was “blocked”.
Consider `CCO` [Ethanol], for which the “SCAM activity / protein banding pattern” value in data set [6] is listed as “not induced”.
In the case of `Oc1ccccc1` [Phenol], in data set [7], the “TCE transformation by resting cells” value was “slower transformation rates”. Further, the “% REMOVAL TCE” value in data set [8] came out at 100%.
For 1-butanol, in [8], the “% REMOVAL Cis-DCE” value was found to be 98%, the “% REMOVAL TCE” value was 16% and the “FINAL OD(550)” value amounted to 0.24. The “SCAM activity / protein banding pattern” value in [6] is reported as “not induced”.
Take `CCCC(=O)OCc1ccccc1` [benzyl butyrate]: the “TCE transformation by resting cells” value in data set [7] is recorded as “rapidly cometabolized”.
Turning to `CC(=O)OCc1ccccc1` [benzyl acetate], the “TCE transformation by resting cells” value in data set [7] is “slower transformation rates”.
Consider 2-butanol, for which the “SCAM activity / protein banding pattern” value in data set [6] is given as “observed”.
On to `C=CCCO` [3-buten-1-ol], for which, in data set [8], the “% REMOVAL Cis-DCE” value amounted to 89%, the “% REMOVAL TCE” value stood at 21% and the “FINAL OD(550)” value is listed as “.022”.
Take `CC=CCO` [2-buten-1-ol]: in data set [8], the “% REMOVAL Cis-DCE” value was 67%, the “% REMOVAL TCE” value is on record as 20% and the “FINAL OD(550)” value is “.023”.
For the compound `CCCC(=O)O` [Butyrate], the “% REMOVAL TCE” value in data set [8] is reported as 9%.
Consider `CCC(C)OC(C)=O` (centres unmarked) [sec-butyl acetate], for which the estimated solubility in data set [9] is 3520 µg/mL.
With `O=C(O)c1ccccc1` [Benzoate], in data set [8], the “% REMOVAL Cis-DCE” value was 84%, the “% REMOVAL TCE” value is reported as 6% and the “FINAL OD(550)” value was 0.24.
As to `CC(C)O` [2-propanol], the “SCAM activity / protein banding pattern” value in data set [6] is reported as “faint banding pattern”.
